Data taken from US20200024662A1, “METHODS FOR TREATING OPIOID ADDICTION” (ASSUREX HEALTH, INC., priority 2016, published 2020).
“Also recorded” adds a separate entry of the source.

Assays:
[1] = test system: patients treated with Methadone in the START trial; experiment: Baseline model (GeneSight Analgesic test) binning vs Methadone completion; type: in vivo, human; conditions: Full Sample
Experimental: (§1) For the model analyses, models were developed that sort patients into one of three categories, Green (‘G’) Yellow (‘Y’) or Red (‘R’). Patients determined to be high risk for non-completion by the model are placed into the Red Bin. Patients at intermediate risk of non-completion are placed in the Yellow Bin, and for this study, Yellow Bin patients are treated the same as patients found to be at Low Risk of non-completion, or those who are placed in the Green Bin. Thus, the Green and Yellow bins are combined for analysis.
The GeneSight Analgesic test (commercial test available from Assurex Health, Inc.) was used as a baseline to determine High Risk patients entering methadone maintenance therapy. Furthremore, the following PK, PD and PK/PD models were evaluated.
(§2) Samples from patients treated with Methadone in the START trial described in Example 1 above were used (N=352). […] Each model was tested as described below against Sample 1, Sample 2 and/or the Full Sample.
(§3) Pearson's product moment, Chi-square with Yates correction were calculated. Diagnostic tests, odds ratios, Pearson's product moment, Chi-square with Yates correction were calculated using MEDCALC and R version 3.3.1.

[2] = test system: patients treated with Methadone in the START trial; experiment: PD Model 2 binning vs Methadone completion; type: in vivo, human
Experimental: as §1
PD Model 2: The completion percentage was calculated for each genotype. For each gene and genotype completion percentage, the means and standard deviations were calculated. For each genotype that was one standard deviation away from the mean, towards higher completion, a score of 1 was given. For each genotype that was one standard deviation away from the mean, towards lower completion, a score of −1 was given. For genotypes that were not one standard deviation away, the raw percent difference from the mean was observed as the score. Each score was then normalized across each gene using a scale from 0.2 to 1. Each value was normalized across all genes by converting the percentages on a plus/minus scale of 0, 0.2, 0.5, and 1 according to Table 17. Values that were greater than or equal to 1 SD away were automatically scored as a 1 or −1. The conversion of genotypes to scores was as shown in Tabl 18. The patient's PD risk was calculated by summing the total genotype risk score. Bins were assigned over the range of scores that maximized completers in Green and Yellow bins and non-completers in the Red bin.
as §2, §3

START trial patients [3] = experiment: Combinatorial gene modeling: composite genetic risk score (biology-based and data-based) vs non-completion
START trial patients [4] = experiment: Single-gene logistic regression of non-completion of 24-week opioid agonist replacement therapy (START trial)
[5] = PD Model 2, Full Sample, Green bin, Risk Score −4.2 to −0.2
[6] = PD Model 2, Full Sample, Red bin, Risk Score 1.3+
[7] = PD Model 2, Full Sample, Yellow bin, Risk Score 0.1 to 1
[8] = PD Model 2, Sample 1, Green bin, Risk Score −3.3 to −0.2
[9] = PD Model 2, Sample 1, Red bin, Risk Score 1.3 to 3.7
[10] = PD Model 2, Sample 1, Yellow bin, Risk Score 0.2 to 1
[11] = PD Model 2, Sample 2, Green bin, Risk Score −3.2 to −1
[12] = PD Model 2, Sample 2, Red bin, Risk Score 0.5 to 2.7
[13] = PD Model 2, Sample 2, Yellow bin, Risk Score −0.9 to 0.3
[14] = composite genetic risk score vs non-completion, adjusted for Dose-bin, 25 gene combinations
[15] = Table 4.3, 24-week treatment, logistic regression with dose category

SMILES: CCC(=O)C(CC(C)N(C)C)(c1ccccc1)c1ccccc1 (stereo not shown) [Methadone, methadone]
- Completers ([1]; Green bin): 170
- Non Completers ([1]; Green bin): 19
- Completers ([1]; Red bin): 28
- Non Completers ([1]; Red bin): 3
- Completers ([1]; Yellow bin): 109
- Non Completers ([1]; Yellow bin): 23
- Completers [2, 5]: 101
- Non Completers [2, 5]: 7
- Completers [2, 6]: 86
- Non Completers [2, 6]: 20
- Completers [2, 7]: 120
- Non Completers [2, 7]: 18
- Completers [2, 8]: 58
- Non Completers [2, 8]: 3
- Completers [2, 9]: 43
- Non Completers [2, 9]: 12
- Completers [2, 10]: 55
- Non Completers [2, 10]: 5
- Completers [2, 11]: 70
- Non Completers [2, 11]: 2
- Completers [2, 12]: 32
- Non Completers [2, 12]: 9
- Completers [2, 13]: 57
- Non Completers [2, 13]: 6
- Odds Ratio for Non-Completers (START trial patients [3]; Biology-Based, ORG4-CYP2B6-CYP2C19): 1.38
- Odds Ratio for Non-Completers (START trial patients [3]; Biology-Based, ORG4-CYP2C19): 1.53
- Odds Ratio for Non-Completers (START trial patients [3]; Biology-Based, ORG4-CYP2C19-1A2): 1.53
- Odds Ratio for Non-Completers (START trial patients [3]; Biology-Based, ORG4-CYP2C19-2C9): 1.44
- Odds Ratio for Non-Completers (START trial patients [3]; Biology-Based, ORG4-CYP2C19-2D6): 1.34
- Odds Ratio for Non-Completers (START trial patients [3]; Data-Based, ORG4-CYP2B6-CYP2C19): 1.9
- Odds Ratio for Non-Completers (START trial patients [3]; Data-Based, ORG4-CYP2C19): 1.76
- Odds Ratio for Non-Completers (START trial patients [3]; Data-Based, ORG4-CYP2C19-1A2): 1.46
- Odds Ratio for Non-Completers (START trial patients [3]; Data-Based, ORG4-CYP2C19-2C9): 1.77
- Odds Ratio for Non-Completers (START trial patients [3]; Data-Based, ORG4-CYP2C19-2D6): 1.72
- composite endpoints significant, biology-based model (START trial patients [3]; [14]): 7 of 25
- composite endpoints significant, data-based model (START trial patients [3]; [14]): 23 of 25
- OR (95% CI) of non-completion, COMT VAL/MET vs MET/MET (START trial patients [4]; [15]): 2.76 (0.99-7.68)
- OR (95% CI) of non-completion, COMT VAL/VAL vs MET/MET (START trial patients [4]; [15]): 3.16 (1.07-9.31)
- OR (95% CI) of non-completion, COMT VAL/VAL vs VAL/MET (START trial patients [4]; [15]): 1.14 (0.56-2.34)
- OR (95% CI) of non-completion, CYP3A4 EM vs IM + PM (START trial patients [4]; [15]): 1.66 (0.48-5.77)
- OR (95% CI) of non-completion, HTR2A Intermediate vs Normal (START trial patients [4]; [15]): 0.58 (0.25-1.36)
- OR (95% CI) of non-completion, HTR2A Intermediate vs Reduced (START trial patients [4]; [15]): 0.73 (0.35-1.52)
- OR (95% CI) of non-completion, HTR2A Normal vs Reduced (START trial patients [4]; [15]): 1.26 (0.51-3.09)
- OR (95% CI) of non-completion, SLC6A4 L/L vs S/S (START trial patients [4]; [15]): 0.54 (0.23-1.23)
- OR (95% CI) of non-completion, SLC6A4 L/S vs L/L (START trial patients [4]; [15]): 0.77 (0.36-1.65)
- OR (95% CI) of non-completion, SLC6A4 L/S vs S/S (START trial patients [4]; [15]): 0.41 (0.19-0.91)
- times more likely not to complete the 24-week treatment, SLC6A4 reduced phenotype compared to intermediate phenotype (START trial patients [4]; […]): 2.41 times
- effect of dose level (Dose-bin-category covariate) on non-completion (START trial patients [4]; significance at p-value ≤0.05 in the single-gene logistic regression models): significant for all eleven genes; also recorded: played an important role
- times more likely not to complete the 24-week treatment, COMT high phenotype compared to reduced phenotype (START trial patients [4]; text statement of odds ratio): 3.16 times
